pIC50: −log10 of the molar value. Values belong to the compound of their own block, whether it stands above or below them.
Key:
[1] = target: T1, Amine oxidase [flavin-containing] A (Homo sapiens, UniProt P21397); test: Inhibition of human recombinant MAO-A expressed in baculovirus-infected insect cells using p-tyraimne substrate; details: for pIC50: read-out: IC50
T1 sequence (P21397 whole entry): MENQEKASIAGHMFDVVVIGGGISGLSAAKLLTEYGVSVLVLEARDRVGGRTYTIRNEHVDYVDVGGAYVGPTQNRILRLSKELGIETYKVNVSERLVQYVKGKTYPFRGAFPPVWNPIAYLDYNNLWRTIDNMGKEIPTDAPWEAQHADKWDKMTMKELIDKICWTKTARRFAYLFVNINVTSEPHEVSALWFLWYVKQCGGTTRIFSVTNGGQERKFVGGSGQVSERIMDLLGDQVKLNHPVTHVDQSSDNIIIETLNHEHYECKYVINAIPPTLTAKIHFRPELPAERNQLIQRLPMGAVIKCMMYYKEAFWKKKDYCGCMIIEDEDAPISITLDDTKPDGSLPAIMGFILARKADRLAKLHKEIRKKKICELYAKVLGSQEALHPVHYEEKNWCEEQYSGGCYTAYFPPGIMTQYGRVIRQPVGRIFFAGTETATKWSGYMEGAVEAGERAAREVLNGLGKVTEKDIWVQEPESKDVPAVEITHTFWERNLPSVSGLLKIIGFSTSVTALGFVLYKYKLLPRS

[2] = target: T2, Amine oxidase [flavin-containing] B (Homo sapiens, UniProt P27338); test: biochemical; type: cell-based
T2 sequence (P27338 whole entry): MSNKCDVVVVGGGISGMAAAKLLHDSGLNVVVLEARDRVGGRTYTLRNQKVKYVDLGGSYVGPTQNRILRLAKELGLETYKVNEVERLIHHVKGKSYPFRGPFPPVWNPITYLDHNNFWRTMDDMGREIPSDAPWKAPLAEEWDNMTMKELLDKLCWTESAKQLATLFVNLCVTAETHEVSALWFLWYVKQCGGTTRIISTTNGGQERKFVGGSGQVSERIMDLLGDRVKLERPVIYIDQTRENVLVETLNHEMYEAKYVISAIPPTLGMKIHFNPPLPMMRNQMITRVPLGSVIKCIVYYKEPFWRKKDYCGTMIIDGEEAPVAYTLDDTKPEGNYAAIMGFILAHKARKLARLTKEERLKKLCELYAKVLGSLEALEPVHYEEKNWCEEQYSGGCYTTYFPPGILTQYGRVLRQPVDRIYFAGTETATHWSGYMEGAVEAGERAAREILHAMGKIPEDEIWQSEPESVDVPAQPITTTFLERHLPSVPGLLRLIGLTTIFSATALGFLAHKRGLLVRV
Description: Inhibition of human recombinant MAO-B expressed in baculovirus-infected insect cells using p-tyraimne substrate

Homo sapiens = species: Homo sapiens; test: Selectivity index, ratio of IC50 for human recombinant MAO-A to IC50 for human recombinant MAO-B
[3] = target: T3, Amine oxidase [flavin-containing] A (Rattus norvegicus, UniProt P21396); test: Inhibition of rat MAO-A from mitochondria-enriched rat liver fractions using p-tyraimne substrate
T3 sequence (P21396 whole entry): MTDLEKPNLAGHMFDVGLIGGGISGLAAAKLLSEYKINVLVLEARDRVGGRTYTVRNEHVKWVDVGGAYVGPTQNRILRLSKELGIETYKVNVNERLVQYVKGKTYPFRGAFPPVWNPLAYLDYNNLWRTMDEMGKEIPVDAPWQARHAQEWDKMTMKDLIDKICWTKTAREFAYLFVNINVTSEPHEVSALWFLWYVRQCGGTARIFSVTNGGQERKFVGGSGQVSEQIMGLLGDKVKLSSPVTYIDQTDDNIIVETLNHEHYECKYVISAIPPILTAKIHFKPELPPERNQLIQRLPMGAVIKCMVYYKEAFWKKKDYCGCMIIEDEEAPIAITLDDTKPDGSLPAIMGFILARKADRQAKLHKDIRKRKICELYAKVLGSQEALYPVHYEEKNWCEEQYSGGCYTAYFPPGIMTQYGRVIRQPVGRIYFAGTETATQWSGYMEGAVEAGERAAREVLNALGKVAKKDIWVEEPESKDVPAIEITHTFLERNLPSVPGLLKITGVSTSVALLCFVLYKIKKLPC

[4] = target: T4, Amine oxidase [flavin-containing] B (Rattus norvegicus, UniProt P19643); test: Inhibition of rat MAO-B from mitochondria-enriched rat liver fractions using p-tyraimne substrate
T4 sequence (P19643 whole entry): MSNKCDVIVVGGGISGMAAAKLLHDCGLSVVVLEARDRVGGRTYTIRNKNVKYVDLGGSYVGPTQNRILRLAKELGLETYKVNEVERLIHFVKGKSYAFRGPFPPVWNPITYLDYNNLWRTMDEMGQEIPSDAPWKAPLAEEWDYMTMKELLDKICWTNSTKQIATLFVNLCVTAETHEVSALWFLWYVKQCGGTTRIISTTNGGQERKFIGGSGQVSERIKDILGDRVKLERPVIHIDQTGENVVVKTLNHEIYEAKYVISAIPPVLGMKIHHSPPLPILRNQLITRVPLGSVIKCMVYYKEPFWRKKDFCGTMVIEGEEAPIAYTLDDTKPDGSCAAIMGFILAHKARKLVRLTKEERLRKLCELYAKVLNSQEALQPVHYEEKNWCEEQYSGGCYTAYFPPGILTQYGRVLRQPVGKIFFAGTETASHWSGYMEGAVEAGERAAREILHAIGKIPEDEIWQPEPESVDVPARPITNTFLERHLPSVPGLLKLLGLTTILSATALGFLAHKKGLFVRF

[5] = target: T3, Amine oxidase [flavin-containing] A; test: Inhibition of rat MAO-A in rat-liver mitochondrial-fraction using [14C]-5-HT substrate
[6] = target: T4, Amine oxidase [flavin-containing] B; test: Inhibition of rat MAO-B in rat-liver mitochondrial-fraction using [14C]-PEA substrate
[7] = target: T2, Amine oxidase [flavin-containing] B; test: Reversible inhibition of human recombinant MAO-B expressed in baculovirus-infected insect cells using p-tyraimne substrate at 1 nM for 22 mins; details: 0.001 µM

Structure (SMILES): Cn1ccc2cc(C(=O)Nc3ccc(Cl)c(Cl)c3)ccc21
- pIC50 [1]: < 5.00
- pIC50 [2]: 8.65
- Ratio IC50 (Homo sapiens): 4420
- pIC50 [3]: < 5.00
- pIC50 [4]: 8.95

Structure (SMILES): C#CCNCc1cc2cc(OCc3ccccc3)ccc2[nH]1
- pIC50 [5]: 7.66
- pIC50 [6]: 5.90

Structure (SMILES): O=C(Nc1ccc2[nH]ncc2c1)c1cccc(Cl)c1Cl
- pIC50 [1]: < 5.00
- pIC50 [2]: 5.59
- pIC50 [3]: < 5.00
- pIC50 [4]: < 5.00

Structure (SMILES): O=C(Nc1ccc(Cl)c(F)c1)c1ccc2cn[nH]c2c1
- pIC50 [1]: < 5.00
- pIC50 [2]: 6.50
- Ratio IC50 (Homo sapiens): > 31
- pIC50 [3]: < 5.00
- pIC50 [4]: 5.57

Structure (SMILES): O=C(Nc1ccc(Cl)c(Cl)c1)c1ccc2nncn2c1
- pIC50 [1]: < 5.00
- pIC50 [2]: 5.64
- Ratio IC50 (Homo sapiens): > 4
- pIC50 [3]: < 5.00
- pIC50 [4]: < 5.00

Structure (SMILES): O=C(Nc1ccc(Cl)c(O)c1)c1ccc2cn[nH]c2c1
- pIC50 [1]: < 5.00
- pIC50 [2]: 5.21
- Ratio IC50 (Homo sapiens): 2
- pIC50 [3]: < 5.00
- pIC50 [4]: < 5.00

Structure (SMILES): O=C(Nc1ccc(F)c(Cl)c1)c1ccc2cn[nH]c2c1
- pIC50 [1]: < 5.00
- pIC50 [2]: 6.63
- Ratio IC50 (Homo sapiens): > 42
- pIC50 [3]: < 5.00
- pIC50 [4]: 5.97

Structure (SMILES): Cn1ncc2cc(/C=N/c3ccc(Cl)c(Cl)c3)ccc21
- pIC50 [1]: > 5.00
- pIC50 [2]: 8.99
- Ratio IC50 (Homo sapiens): 9710
- pIC50 [3]: < 5.00
- pIC50 [4]: 8.34

Structure (SMILES): O=C(Nc1ccc(Cl)c(Cl)c1)c1ccc2cn[nH]c2c1
- pIC50 [1]: 5.48
- pIC50 [2]: 7.17
- Ratio IC50 (Homo sapiens): > 49
- pIC50 [3]: > 5.00
- pIC50 [4]: 6.33

Structure (SMILES): O=C(Nc1ccc(Cl)c(O)c1)c1ccc2[nH]ncc2c1
- Ratio IC50 (Homo sapiens): 80

Structure (SMILES): Clc1ccc(/N=C/c2ccc3[nH]ncc3c2)cc1Cl
- pIC50 [1]: > 5.00
- pIC50 [3]: < 5.00

Structure (SMILES): COc1cc(NC(=O)c2ccc3[nH]ncc3c2)ccc1Cl
- Ratio IC50 (Homo sapiens): 2020

Structure (SMILES): O=C(Nc1ccc(O)c(Cl)c1)c1ccc2[nH]ncc2c1
- Ratio IC50 (Homo sapiens): > 81

Structure (SMILES): O=[N+]([O-])c1ccc2[nH]ncc2c1
- IC50 [1]: Not Active
- pIC50 [2]: 5.60

Structure (SMILES): O=C(Nc1cc(Cl)cc(Cl)c1)c1ccc2[nH]ncc2c1
- pIC50 [1]: < 5.00
- pIC50 [2]: 8.56
- Ratio IC50 (Homo sapiens): 3640
- pIC50 [3]: < 5.00
- pIC50 [4]: 8.56

Structure (SMILES): O=C(Nc1ccc(F)c(F)c1)c1ccc2[nH]ncc2c1
- Ratio IC50 (Homo sapiens): 6290

Structure (SMILES): O=C(NCc1ccc(Cl)c(Cl)c1)c1ccc2[nH]ncc2c1
- pIC50 [1]: < 5.00
- pIC50 [2]: 6.41
- Ratio IC50 (Homo sapiens): > 25
- pIC50 [3]: < 5.00
- pIC50 [4]: 6.08

Structure (SMILES): COc1cc(NC(=O)c2ccc3cn[nH]c3c2)ccc1Cl
- pIC50 [1]: < 5.00
- pIC50 [2]: 5.56
- Ratio IC50 (Homo sapiens): 4
- pIC50 [3]: < 5.00
- pIC50 [4]: < 5.00

Structure (SMILES): O=C(Nc1ccc(F)c(F)c1)c1ccc2cn[nH]c2c1
- pIC50 [1]: < 5.00
- pIC50 [2]: 5.89
- Ratio IC50 (Homo sapiens): > 7
- pIC50 [3]: < 5.00
- pIC50 [4]: > 5.00

Structure (SMILES): O=C(Nc1ccc(Cl)c(Cl)c1)c1ccc2[nH]ncc2c1
- pIC50 [1]: ≤ 5.00
- Ratio IC50 (Homo sapiens): 17100
- inhibition (INH) [7]: Active
- pIC50 [3]: < 5.00
- pIC50 [4]: 8.84

Second part, the compound after the results:

- pIC50 [1]: 5.89
- pIC50 [3]: 5.17
- pIC50 [4]: 9.00
Structure (SMILES): O=C(Nc1ccc(Cl)c(Cl)c1)c1ccc2[nH]ccc2c1

- pIC50 [1]: < 5.00
- pIC50 [2]: 7.91
- Ratio IC50 (Homo sapiens): 806
- pIC50 [3]: < 5.00
- pIC50 [4]: 6.86
Structure (SMILES): O=C(Nc1ccc2[nH]ncc2c1)c1ccc(Cl)c(Cl)c1

- pIC50 [1]: < 5.00
- pIC50 [2]: > 5.00
- pIC50 [3]: < 5.00
- pIC50 [4]: 5.48
Structure (SMILES): O=C(Nc1ccc(O)c(Cl)c1)c1ccc2cn[nH]c2c1

- Ratio IC50 (Homo sapiens): 1840
Structure (SMILES): O=C(Nc1cnc(Cl)c(Cl)c1)c1ccc2[nH]ncc2c1

- Ratio IC50 (Homo sapiens): 2920
Structure (SMILES): COc1ccc(NC(=O)c2ccc3[nH]ncc3c2)cc1Cl

- Ratio IC50 (Homo sapiens): > 54
Structure (SMILES): COc1ccc(NC(=O)c2ccc3[nH]ncc3c2)cc1OC

- pIC50 [1]: < 5.00
- pIC50 [2]: 6.85
- Ratio IC50 (Homo sapiens): 71
- pIC50 [3]: < 5.00
- pIC50 [4]: 5.94
Structure (SMILES): O=C(Nc1ccc(Cl)c(Cl)c1)c1ccc2nccn2c1

- pIC50 [1]: < 5.00
- pIC50 [2]: 5.89
- Ratio IC50 (Homo sapiens): 8
- pIC50 [3]: < 5.00
- pIC50 [4]: > 5.00
Structure (SMILES): COc1ccc(NC(=O)c2ccc3cn[nH]c3c2)cc1Cl

- pIC50 [1]: < 5.00
- pIC50 [2]: 5.48
- pIC50 [3]: < 5.00
- pIC50 [4]: < 5.00
Structure (SMILES): O=C(Nc1ccc2[nH]ncc2c1)c1c(F)cccc1Cl

- pIC50 [1]: < 5.00
- Ratio IC50 (Homo sapiens): 15000
Structure (SMILES): O=C(Nc1ccc(Cl)c(F)c1)c1ccc2[nH]ncc2c1

- pIC50 [1]: < 5.00
- pIC50 [2]: < 5.00
- pIC50 [3]: < 5.00
- pIC50 [4]: < 5.00
Structure (SMILES): Cn1cc(C(=O)Nc2ccc3[nH]ncc3c2)ccc1=O

- pIC50 [1]: < 5.00
- pIC50 [2]: 6.47
- Ratio IC50 (Homo sapiens): > 29
- pIC50 [3]: < 5.00
- pIC50 [4]: 6.37
Structure (SMILES): O=C(Nc1cc(Cl)cc(Cl)c1)c1ccc2cn[nH]c2c1

- pIC50 [1]: < 5.00
- pIC50 [2]: 6.05
- Ratio IC50 (Homo sapiens): > 11
- pIC50 [3]: < 5.00
- pIC50 [4]: < 5.00
Structure (SMILES): O=C(Cc1ccc(Cl)c(Cl)c1)Nc1ccc2[nH]ncc2c1

- pIC50 [1]: < 5.00
- pIC50 [2]: 6.93
- Ratio IC50 (Homo sapiens): > 86
- pIC50 [3]: < 5.00
- pIC50 [4]: 6.15
Structure (SMILES): O=C(Nc1ccccc1)c1ccc2[nH]ncc2c1

- pIC50 [1]: < 5.00
- pIC50 [2]: < 5.00
- pIC50 [3]: < 5.00
- pIC50 [4]: < 5.00
Structure (SMILES): COc1ccc(NC(=O)c2ccc3cn[nH]c3c2)cc1OC

- pIC50 [1]: < 5.00
- pIC50 [2]: 6.66
- Ratio IC50 (Homo sapiens): > 9
- pIC50 [3]: < 5.00
- pIC50 [4]: 5.70
Structure (SMILES): O=C(Nc1ccc2cn[nH]c2c1)c1cnc(N2CCOCC2)c(Cl)c1
